According to patent US20210236541A1, “IODOPHOR COMPOSITION WITH IMPROVED STABILITY IN THE PRESENCE OF ORGANIC MATERIAL” (priority 2014, published 2021):

Tests used:
Type in all cases: cell-based
P. aeruginosa = experiment: Nebulisation simulation, kill efficiency on inoculated bandage; conditions: 1 mL nebulised, 15 minutes exposure, FIG. 6
E. coli ATCC 25922 [1] = experiment: as above; conditions: for performance of the novel iodophor relative to the labelled antibiotic: nebulised, 15 minutes, Levofloxacin and Polymyxin B at all concentrations, Gentamycin 0.1 mg and 1 mg
bacterial cells = test system: bacterial cells
E. coli ATCC 25922 [2] = experiment: MIC micro-broth dilution

OO [Hydrogen peroxide]
killing efficiency (P. aeruginosa): limited killing efficiency
killing efficiency (E. coli ATCC 25922 [1]; 1 mL nebulised, 15 minutes exposure, FIG. 5): limited killing efficiency
recovery of viable bacterial cells (bacterial cells): recovery of viable cells

Gentamycin
performance of the novel iodophor relative to the labelled antibiotic (E. coli ATCC 25922 [1]): superior

Polymyxin B
performance of the novel iodophor relative to the labelled antibiotic (E. coli ATCC 25922 [1]): equivalent performance

polyvinylpyrrolidone iodine [PVP-I]
MIC (E. coli ATCC 25922 [2]; in lysogeny broth (LB), text of b30): 500 µg/mL
minimum inhibitory concentration (MIC) (E. coli ATCC 25922 [2]; in water): < 1 µg/mL
MBC value (E. coli ATCC 25922 [2]; organic rich growth medium (such as lysogeny broth)): > 500 µg/mL
